Reference: US6506772B1, “Substituted [1,2,4]triazolo[1,5a]pyridine derivatives with activity as adenosine receptor ligands” (Hoffmann-La Roche Inc., priority 2000, dated 2003)
Like-named read-outs stand apart in the source and are kept apart here.

Experiments:
[1] = molecular target: T1, human adenosine A2A receptor (Homo sapiens, UniProt P29274); test: Human adenosine A2A receptor [3H]-SCH-58261 binding assay
T1 construct: expressed in transfected cells; host or cells: CHO cells, Semliki Forest virus expression system; membrane preparation
T1 sequence (P29274 whole entry): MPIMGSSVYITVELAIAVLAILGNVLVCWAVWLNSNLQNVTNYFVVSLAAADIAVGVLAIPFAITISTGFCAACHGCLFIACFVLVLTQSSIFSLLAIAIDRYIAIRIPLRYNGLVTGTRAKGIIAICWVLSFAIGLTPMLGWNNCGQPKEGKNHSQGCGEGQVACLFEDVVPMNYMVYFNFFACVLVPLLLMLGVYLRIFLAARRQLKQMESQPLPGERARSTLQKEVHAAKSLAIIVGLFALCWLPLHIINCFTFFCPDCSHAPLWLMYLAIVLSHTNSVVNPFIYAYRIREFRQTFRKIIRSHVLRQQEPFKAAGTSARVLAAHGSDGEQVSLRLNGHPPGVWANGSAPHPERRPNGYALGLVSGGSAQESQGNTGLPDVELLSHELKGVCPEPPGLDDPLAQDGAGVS

[2] = molecular target: T2, HA1 adenosine receptor (Homo sapiens, UniProt P30542); test: Human adenosine A1 receptor affinity (Ki hA1); type: binding
T2 sequence (P30542 1-326): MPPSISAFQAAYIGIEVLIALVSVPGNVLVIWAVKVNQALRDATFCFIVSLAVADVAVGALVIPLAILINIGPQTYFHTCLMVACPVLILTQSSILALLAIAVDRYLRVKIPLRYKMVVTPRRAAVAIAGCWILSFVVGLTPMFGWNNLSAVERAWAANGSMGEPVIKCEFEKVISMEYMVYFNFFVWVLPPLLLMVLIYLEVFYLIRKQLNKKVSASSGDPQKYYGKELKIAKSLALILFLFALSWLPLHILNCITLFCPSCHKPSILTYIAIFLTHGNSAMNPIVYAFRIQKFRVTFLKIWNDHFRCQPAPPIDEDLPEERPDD

[3] = affinity to human adenosine A2A receptor, read-out: Ki HA2A
[4] = calculated ratio of the affinity to the HA1 receptor to the HA2a receptor
[5] = affinity to human adenosine A1 receptor
[6] = recombinant human A2A in CHO cell membranes, [3H]-SCH-58261, Cheng-Prussoff, read-out: Ki hA2A

SMILES	Ki [1, 3] [nM]	selectivity (A1/A2a) [1, 4]	Ki [2, 5] [nM]	selectivity (A1/A2a) ([1]; ratio KiHA1 divided by KiHA2A)	Ki [1, 6] [nM]	Ki [2] [nM]
Nc1cc(C(=O)N2CCCCC2)cc2nc(-c3cccs3)nn12 [Example 129, (5-Amino-2-thiophen-2-yl-[1,2,4]triazolo[1,5-a]pyridin-7-yl)-piperidin-1-yl-methanone]	101	14.5	1460	–	–	–
CCN(CC)C(=O)c1cc(N)n2nc(-c3ccccn3)nc2c1 [Example 35, 5-Amino-2-pyridin-2-yl-[1,2,4]triazolo[1,5-a]pyridine-7-carboxylic acid diethylamide]	106	27.5	2920	–	–	–
Nc1cc(C(=O)N2CCN(c3ccccc3)CC2)cc2nc(-c3ccc(Br)o3)nn12 [Example 353, [5-Amino-2-(5-bromo-furan-2-yl)-[1,2,4]triazolo[1,5-a]pyridin-7-yl]-(4-phenyl-piperazin-1-yl)-methanone]	81.5	12.7	1040	–	–	–
Cn1cccc1-c1nc2cc(C(=O)NCc3ccccc3Cl)cc(N)n2n1 [Example 181, 5-Amino-2-(1-methyl-1H-pyrrol-2-yl)-[1,2,4]triazolo[1,5-a]pyridine-7-carboxylic acid 2-chloro-benzylamide]	54.3	4.7	256	–	–	–
CCCN(CCC)C(=O)c1cc(N)n2nc(-c3ccccn3)nc2c1 [Example 420, 5-Amino-2-pyridin-2-yl-[1,2,4]triazolo[1,5-a]pyridine-7-carboxylic acid dipropylamide]	–	–	–	17.5	103	1810
NC(=O)[C@@H]1CCCN1C(=O)c1cc(N)n2nc(-c3ccc(Br)o3)nc2c1 [Example 388, 1-[5-Amino-2-(5-bromo-furan-2-yl)-[1,2,4]triazolo[1,5-a]pyridine-7-carbonyl]-L-pyrrolidine-2-carboxylic acid amide]	–	–	–	12.4	26.7	330
COc1ccc(CNC(=O)c2cc(N)n3nc(-c4nccs4)nc3c2)cc1OC [Example 208, 5-Amino-2-thiazol-2-yl-[1,2,4]triazolo[1,5-a]pyridine-7-carboxylic acid 3,4-dimethoxy-benzylamide]	316	5.9	1860	–	–	–
Nc1cc(C(=O)N2CCCCC2)cc2nc(-c3ccccn3)nn12 [Example 34, (5-Amino-2-pyridin-2-yl-[1,2,4]triazolo[1,5-a]pyridin-7-yl)-piperidin-1-yl-methanone]	154	38.8	5980	–	–	–
CC(C)N(Cc1ccccc1)C(=O)c1cc(N)n2nc(-c3cccnc3)nc2c1 [Example 86, 5-Amino-2-pyridin-3-yl-[1,2,4]triazolo[1,5-a]pyridine-7-carboxylic acid benzyl-isopropyl-amide]	252	3.2	819	–	–	–
CCN(C(=O)c1cc(N)n2nc(-c3nccs3)nc2c1)C(C)C [Example 288, 5-Amino-2-thiazol-2-yl-[1,2,4]triazolo[1,5-a]pyridine-7-carboxylic acid ethyl-isopropyl-amide]	66.6	21.0	1400	–	–	–
CCN(CC)C(=O)c1cc(N)n2nc(-c3ccc(OC)s3)nc2c1 [Example 68, 5-Amino-2-(5-methoxy-thiophen-2-yl)-[1,2,4]triazolo[1,5-a]pyridine-7-carboxylic acid diethylamide]	171	4.2	717	–	–	–

Other lines, results leading:

Ki [1, 3] [nM]	selectivity (A1/A2a) [1, 4]	Ki [2, 5] [nM]	selectivity (A1/A2a) ([1]; ratio KiHA1 divided by KiHA2A)	Ki [1, 6] [nM]	Ki [2] [nM]	SMILES
2.9	22.3	64.7	–	–	–	Nc1cc(C(=O)N2CCCC3CCCCC32)cc2nc(-c3ccc(Br)o3)nn12 (stereo not drawn) [Example 349, [5-Amino-2-(5-bromo-furan-2-yl)-[1,2,4]triazolo[1,5-a]pyridin-7-yl]-(octoahydro-quinolin-1-yl)-methanone]
13.4	20.2	270	–	–	–	COCCN(CCOC)C(=O)c1cc(N)n2nc(-c3ccc(Cl)o3)nc2c1 [Example 260, 5-Amino-2-(5-chloro-furan-2-yl)-[1,2,4]triazolo[1,5-a]pyridine-7-carboxylic acid bis-(2-methoxy-ethyl)-amide]
33.7	9.0	302	–	–	–	COc1ccc(CNC(=O)c2cc(N)n3nc(-c4ccco4)nc3c2)cc1 [Example 183, 5-Amino-2-furan-2-yl-[1,2,4]triazolo[1,5-a]pyridine-7-carboxylic acid 4-methoxy-benzylamide]
17.1	13.3	228	–	–	–	Nc1cc(C(=O)NCc2ccccc2Cl)cc2nc(-c3ccoc3)nn12 [Example 156, 5-Amino-2-furan-3-yl-[1,2,4]triazolo[1,5-a]pyridine-7-carboxylic acid 2-chloro-benzylamide]
2.9	20.2	58.7	–	–	–	Nc1cc(C(=O)NCc2ccccc2Cl)cc2nc(-c3ccco3)nn12 [Example 109, 5-Amino-2-furan-2-yl-[1,2,4]triazolo[1,5-a]pyridine-7-carboxylic acid 2-chloro-benzylamide]
4.1	35.0	143	–	–	–	Nc1cc(C(=O)N2CC=CCC2)cc2nc(-c3ccc(Br)o3)nn12 [Example 294, [5-Amino-2-(5-bromo-furan-2-yl)-[1,2,4]triazolo[1,5-a]pyridin-7-yl]-(3,6-dihydro-2H-pyridin-1-yl)-methanone]
2.7	15.6	42.2	–	–	–	CN(Cc1ccccc1)C(=O)c1cc(N)n2nc(-c3ccc(Br)o3)nc2c1 [Example 343, 5-Amino-2-(5-bromo-furan-2-yl)-[1,2,4]triazolo[1,5-a]pyridine-7-carboxylic acid benzyl-methyl-amide]
